{"source": "paper PMC4326827", "about": "“Biophysical Studies on Interactions and Assembly of Full-size E3 Ubiquitin Ligase” (The Journal of Biological Chemistry, 2014)", "key": {"SOCS2-EloBC": {"biological_target": "T1, SOCS2-EloBC (Homo sapiens, UniProt O14508+Q15369+Q15370)", "T1 construct": "Recombinant human SOCS2 (amino acids 32–198); His6 (cleaved yes); made in house; host or cells: Escherichia coli BL21(DE3)", "T1 sequence (O14508 32-198)": "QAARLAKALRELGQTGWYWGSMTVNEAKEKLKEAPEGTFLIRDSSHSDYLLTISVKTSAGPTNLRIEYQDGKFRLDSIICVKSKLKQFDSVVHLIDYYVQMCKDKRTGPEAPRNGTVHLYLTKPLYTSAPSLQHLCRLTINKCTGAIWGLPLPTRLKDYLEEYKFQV", "T1 sequence (Q15369 17-112 partner limits assumed)": "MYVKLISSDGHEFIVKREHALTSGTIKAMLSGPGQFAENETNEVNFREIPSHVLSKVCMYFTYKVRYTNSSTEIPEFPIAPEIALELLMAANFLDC", "T1 sequence (Q15370 whole entry partner, the tested form may be a part)": "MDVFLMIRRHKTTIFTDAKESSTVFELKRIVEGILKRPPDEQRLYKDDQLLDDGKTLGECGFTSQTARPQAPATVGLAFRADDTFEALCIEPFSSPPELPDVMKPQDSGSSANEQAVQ", "assay": "ITC of GHR peptides and phosphotyrosine into SOCS2-EloBC", "format": "binding", "conditions": "298 K"}, "[1]": {"system": "CRL5^SOCS2 (SOCS2, EloB, EloC, Cul5, and Rbx2)", "assay": "Peptide bead pull-down from K562 cell lysate, CRL5^SOCS2 components", "format": "binding", "conditions": "immobilized peptide beads, human K562 total cell lysate, 2 h at 4 °C, tandem mass tags MS", "source_text": "(§1) After washing, bound proteins were eluted with SDS-sample buffer and prepared for tandem mass tags labeling and MS analysis as described previously ([17])."}, "[2]": {"biological_target": "GHR_pY595-SOCS2-EloBC complex", "assay": "ITC of Cul5NTD into GHR_pY595-SOCS2-EloBC (cooperativity)", "format": "binding, human", "conditions": "titration of Cul5NTD into GHR_pY595-SOCS2-EloBC complex", "protocol": "Experiments were conducted using an iTC200 microcalorimeter instrument (GE Healthcare). […] Peptides and Tyr(P) were dissolved in the same buffer. Obtained data were analyzed and fitted using the Microcal Origin version 7.0 software package. Binding enthalpy, dissociation constants, and stoichiometry were determined by fitting the data using a one-set-of-site binding model."}, "[3]": {"system": "CRL1^FBXO31 E3 ligase (FBXO31, Rbx1, Cul1, and Skp1)", "assay": "Peptide bead pull-down from K562 cell lysate, CRL1^FBXO31 subunits", "format": "binding", "conditions": "peptide beads, human K562 cell lysate, 2 h at 4 °C, MS", "source_text": "as §1"}, "SOCS2": {"biological_target": "SOCS2 (UniProt O14508)", "assay": "peptide-bead pull-down from lysate, TMT MS", "conditions": "reference: GHR_Y595 peptide beads; sites Y595"}}, "note": "*: point of attachment. Biotin = O=C1N[C@H]2[C@H](CS[C@H]2CCCCC(=O)*)N1; Ahx = NCCCCCC(=O)O"}
{"compound": "N[C@@H](Cc1ccc(OP(=O)(O)O)cc1)C(=O)O", "note": "[Tyr(P), phosphotyrosine]", "values": [{"measurement": "Kd", "setting": "SOCS2-EloBC; 350 μM peptide or 2 mM Tyr(P) into 30 μM SOCS2-EloBC, 50 mM HEPES, pH 7.5, 250 mM NaCl, 0.5 mM TCEP, one-set-of-site model", "result": 191, "unit": "µM"}, {"measurement": "binding affinity weaker than for phosphorylated peptide GHR_pY595", "setting": "SOCS2-EloBC; ratio of Kd", "result": "~100 -fold"}]}
{"compound": "Biotin-aminohexanoic acid-PVPDpYTSIHIV-amide [GHR_pY595-beads]", "values": [{"measurement": "capture of CRL5^SOCS2 components on peptide beads", "setting": "[1]", "result": "endogenous components of CRL5^SOCS2 E3 ligase were only captured by GHR_pY595-beads"}]}
{"compound": "Cul5NTD: Recombinant human Cul5NTD (N-terminal domain, residues 1–386) expressed in E. coli", "values": [{"measurement": "change in Kd or ΔH (cooperativity)", "setting": "[2]", "result": "No change in the Kd or ΔH values was observed"}]}
{"compound": "GHR_Y595-containing beads: biotinylated non-phosphorylated GHR_Y595 peptide immobilized on high capacity Neutravidin beads ({Biotin-Ahx}-PVPDYTSIHIV-NH2; SMILES CC[C@H](C)[C@H](NC(=O)[C@H](CO)NC(=O)[C@@H](NC(=O)[C@H](Cc1ccc(O)cc1)NC(=O)[C@H](CC(=O)O)NC(=O)[C@@H]1CCCN1C(=O)[C@@H](NC(=O)[C@@H]1CCCN1C(=O)CCCCCNC(=O)CCCC[C@@H]1SC[C@@H]2NC(=O)N[C@@H]21)C(C)C)[C@@H](C)O)C(=O)N[C@@H](Cc1c[nH]cn1)C(=O)N[C@H](C(=O)N[C@H](C(N)=O)C(C)C)[C@@H](C)CC)", "values": [{"measurement": "capture of CRL5^SOCS2 components on peptide beads", "setting": "[1]", "result": "no significant capturing from cell lysates was observed"}, {"measurement": "capture of CRL1^FBXO31 subunits", "setting": "[3]", "result": "significant recruitment of the four CRL1^FBXO31 subunits was also observed"}]}
{"compound": "growth hormone receptor (GHR) (from UniProt P10912) GHR_pY595 peptide beads", "values": [{"measurement": "binding against the reference", "setting": "SOCS2", "result": "gained"}]}
